In ChEMBL document CHEMBL1201862, “PubChem BioAssay data set” (2004):
Calls of active or inactive are those of the source.

Assays:
[1] = target: Voltage-gated inwardly rectifying potassium channel KCNH2 (Homo sapiens, UniProt Q12809); conditions: Potency;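 also: confirmatory quantitative high-throughput screen measuring inhibition of hERG channel activity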
[2] = target: Photoreceptor-specific nuclear receptor (Homo sapiens, UniProt Q9Y5X4); format: functional, cell-based;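 also: CHO-S cells with Gal4-NCOR and VP16-NR2E3 two-hybrid luciferase reporter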
Chain of Photoreceptor-specific nuclear receptor (Q9Y5X4 whole entry, the tested form may be a part): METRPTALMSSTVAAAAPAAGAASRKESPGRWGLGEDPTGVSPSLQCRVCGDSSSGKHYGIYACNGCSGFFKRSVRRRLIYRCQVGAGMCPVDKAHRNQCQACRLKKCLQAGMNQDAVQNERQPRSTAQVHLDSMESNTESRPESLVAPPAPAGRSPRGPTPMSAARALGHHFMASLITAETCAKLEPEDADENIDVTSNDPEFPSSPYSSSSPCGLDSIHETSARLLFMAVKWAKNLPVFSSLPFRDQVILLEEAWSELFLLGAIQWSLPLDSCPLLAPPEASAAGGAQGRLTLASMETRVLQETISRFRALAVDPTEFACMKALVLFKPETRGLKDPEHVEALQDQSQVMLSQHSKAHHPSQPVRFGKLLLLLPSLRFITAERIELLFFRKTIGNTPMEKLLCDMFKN

[3] = target: T1, Heat shock factor protein 1 (Mus musculus, UniProt P38532); experiment: HSF1 potentiators in luciferase reporter cells, confirmation, cell-based, NIH3T3, luminescence, dose retest (AID 435004); format: functional;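 also: stress induced by proteasome inhibitor MG132 added 30 min after compound; luciferase reporter driven by HSF1 response element in NIH3T3 cells; actives raise luminescence as potentiators of the MG132 stress response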
T1 sequence (P38532 whole entry): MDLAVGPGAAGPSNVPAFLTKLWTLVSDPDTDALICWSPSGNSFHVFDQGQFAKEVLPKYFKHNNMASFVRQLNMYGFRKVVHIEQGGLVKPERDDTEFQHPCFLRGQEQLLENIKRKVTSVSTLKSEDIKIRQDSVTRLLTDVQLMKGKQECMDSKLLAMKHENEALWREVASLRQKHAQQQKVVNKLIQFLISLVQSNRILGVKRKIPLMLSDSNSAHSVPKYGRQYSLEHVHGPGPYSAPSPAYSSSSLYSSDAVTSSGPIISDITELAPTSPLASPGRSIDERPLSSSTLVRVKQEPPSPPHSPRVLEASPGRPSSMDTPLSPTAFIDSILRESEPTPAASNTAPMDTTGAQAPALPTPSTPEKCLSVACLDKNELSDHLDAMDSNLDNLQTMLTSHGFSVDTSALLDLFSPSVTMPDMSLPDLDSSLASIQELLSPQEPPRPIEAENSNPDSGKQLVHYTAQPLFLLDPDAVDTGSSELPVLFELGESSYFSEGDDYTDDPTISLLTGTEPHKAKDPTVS

Beta-galactosidase = Beta-galactosidase (Escherichia coli, UniProt Q8VNN2); experiment: PubChem AID 485352; format: functional
Chain of Beta-galactosidase (Q8VNN2 whole entry): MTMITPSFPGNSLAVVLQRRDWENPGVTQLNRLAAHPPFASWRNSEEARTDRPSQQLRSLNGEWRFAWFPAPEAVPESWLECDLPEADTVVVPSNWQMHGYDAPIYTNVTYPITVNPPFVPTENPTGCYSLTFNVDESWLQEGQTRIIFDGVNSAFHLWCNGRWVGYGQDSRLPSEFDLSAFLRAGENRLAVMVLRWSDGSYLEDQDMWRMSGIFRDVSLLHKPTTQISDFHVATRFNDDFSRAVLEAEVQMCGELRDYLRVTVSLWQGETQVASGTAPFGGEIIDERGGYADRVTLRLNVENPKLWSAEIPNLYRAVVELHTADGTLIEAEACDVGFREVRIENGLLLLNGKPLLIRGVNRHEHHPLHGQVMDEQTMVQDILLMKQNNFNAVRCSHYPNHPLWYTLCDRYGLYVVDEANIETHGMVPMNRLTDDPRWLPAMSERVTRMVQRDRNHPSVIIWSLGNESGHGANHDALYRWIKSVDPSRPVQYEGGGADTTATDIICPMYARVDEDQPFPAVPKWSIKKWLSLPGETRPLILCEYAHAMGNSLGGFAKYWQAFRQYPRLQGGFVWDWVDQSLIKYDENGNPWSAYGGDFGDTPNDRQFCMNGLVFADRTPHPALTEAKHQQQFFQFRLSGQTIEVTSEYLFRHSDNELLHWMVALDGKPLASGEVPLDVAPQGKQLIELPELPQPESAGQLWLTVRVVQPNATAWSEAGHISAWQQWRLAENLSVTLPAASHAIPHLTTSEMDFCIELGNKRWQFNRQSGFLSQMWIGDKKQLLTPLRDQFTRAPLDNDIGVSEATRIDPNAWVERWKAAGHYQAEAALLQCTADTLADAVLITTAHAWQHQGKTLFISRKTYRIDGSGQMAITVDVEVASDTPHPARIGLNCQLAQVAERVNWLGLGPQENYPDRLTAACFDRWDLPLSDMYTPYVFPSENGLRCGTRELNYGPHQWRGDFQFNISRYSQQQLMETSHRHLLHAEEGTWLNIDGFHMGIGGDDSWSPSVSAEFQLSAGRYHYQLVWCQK

cells [4] = format: functional, cell-based
[5] = target: T2, Type-1 angiotensin II receptor (Homo sapiens, UniProt P30556); experiment: AT1 receptor antagonists, dose response, selectivity assay for APJ receptor antagonist project, cell-based, uHTS hits (AID 463214); format: functional;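 also: antagonist potency against angiotensin II stimulated AT1 response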
T2 sequence (P30556 whole entry): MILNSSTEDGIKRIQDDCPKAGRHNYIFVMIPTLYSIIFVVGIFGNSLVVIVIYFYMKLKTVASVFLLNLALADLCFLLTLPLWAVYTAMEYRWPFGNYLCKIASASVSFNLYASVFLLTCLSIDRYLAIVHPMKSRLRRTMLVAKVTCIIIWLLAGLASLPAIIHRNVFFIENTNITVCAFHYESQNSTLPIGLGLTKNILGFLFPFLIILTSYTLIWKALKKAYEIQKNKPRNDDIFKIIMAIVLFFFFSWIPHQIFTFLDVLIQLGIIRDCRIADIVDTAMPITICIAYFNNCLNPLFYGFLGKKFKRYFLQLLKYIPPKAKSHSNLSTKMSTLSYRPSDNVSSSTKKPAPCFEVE

cells [6] = format: functional, cell-based; remark: listed apart in the source
INS1 = experiment: beta cell apoptosis inhibitors, cytokine rescue, dose response, luminescence, retest (AID 449756); format: functional, cell-based; conditions: Rattus norvegicus;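 also: cell death triggered by IL-1 beta plus TNF-alpha plus IFN-gamma mixture; protective hits raise ATP signal compared with cytokine alone wells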
Cytochrome P450 3A4 [7] = target: T3, Cytochrome P450 3A4 (Homo sapiens, UniProt P08684)
T3 sequence (P08684 whole entry): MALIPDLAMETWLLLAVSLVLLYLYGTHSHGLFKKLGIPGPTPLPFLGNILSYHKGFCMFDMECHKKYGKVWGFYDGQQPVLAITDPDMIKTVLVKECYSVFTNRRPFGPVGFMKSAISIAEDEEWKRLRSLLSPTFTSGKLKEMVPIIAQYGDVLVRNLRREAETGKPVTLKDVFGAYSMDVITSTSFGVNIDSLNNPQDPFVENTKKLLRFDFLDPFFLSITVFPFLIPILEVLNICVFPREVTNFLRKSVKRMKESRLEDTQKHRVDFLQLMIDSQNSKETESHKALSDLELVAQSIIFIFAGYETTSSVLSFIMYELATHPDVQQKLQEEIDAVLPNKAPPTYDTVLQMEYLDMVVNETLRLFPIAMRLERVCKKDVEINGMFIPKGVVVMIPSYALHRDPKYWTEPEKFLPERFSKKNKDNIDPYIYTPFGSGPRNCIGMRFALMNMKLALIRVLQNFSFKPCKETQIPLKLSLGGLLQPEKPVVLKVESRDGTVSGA

Cytochrome P450 2C19 = Cytochrome P450 2C19 (Homo sapiens, UniProt P33261); experiment: Cytochrome panel assay with activity outcomes. Panel member name: p450-cyp2c19 Compounds with AC50 equal or less than 10 uM are considered active; format: functional; conditions: read-out: AC50
Chain of Cytochrome P450 2C19 (P33261 whole entry): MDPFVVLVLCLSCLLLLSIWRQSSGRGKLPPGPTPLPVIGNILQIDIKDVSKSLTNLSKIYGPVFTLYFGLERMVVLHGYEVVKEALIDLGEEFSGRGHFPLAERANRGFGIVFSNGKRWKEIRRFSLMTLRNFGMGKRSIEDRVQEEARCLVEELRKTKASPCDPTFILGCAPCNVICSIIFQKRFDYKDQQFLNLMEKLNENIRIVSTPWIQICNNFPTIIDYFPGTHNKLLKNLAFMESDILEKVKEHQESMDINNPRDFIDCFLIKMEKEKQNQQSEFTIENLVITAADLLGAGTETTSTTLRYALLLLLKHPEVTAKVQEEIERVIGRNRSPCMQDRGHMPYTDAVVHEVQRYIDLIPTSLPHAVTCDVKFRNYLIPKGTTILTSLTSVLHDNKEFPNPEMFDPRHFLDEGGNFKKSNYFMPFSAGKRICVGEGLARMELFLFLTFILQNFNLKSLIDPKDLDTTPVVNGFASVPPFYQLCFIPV

Cytochrome P450 2C9 = Cytochrome P450 2C9 (Homo sapiens, UniProt P11712)
Chain of Cytochrome P450 2C9 (P11712 whole entry): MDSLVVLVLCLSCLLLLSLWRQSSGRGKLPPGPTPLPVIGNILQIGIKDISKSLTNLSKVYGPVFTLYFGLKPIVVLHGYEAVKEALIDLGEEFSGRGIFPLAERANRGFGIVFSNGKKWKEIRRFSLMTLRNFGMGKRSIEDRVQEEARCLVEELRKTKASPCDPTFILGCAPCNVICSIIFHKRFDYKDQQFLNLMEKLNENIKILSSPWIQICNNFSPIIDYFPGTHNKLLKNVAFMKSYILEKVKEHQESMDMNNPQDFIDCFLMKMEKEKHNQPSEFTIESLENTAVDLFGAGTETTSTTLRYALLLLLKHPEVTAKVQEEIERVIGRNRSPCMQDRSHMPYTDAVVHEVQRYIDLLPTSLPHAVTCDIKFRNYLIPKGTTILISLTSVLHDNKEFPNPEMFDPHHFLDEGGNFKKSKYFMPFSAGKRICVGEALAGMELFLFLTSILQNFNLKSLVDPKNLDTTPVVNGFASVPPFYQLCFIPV

[8] = target: T4, Adenosylmethionine-8-amino-7-oxononanoate aminotransferase (Mycobacterium tuberculosis, UniProt P9WQ81); experiment: Mycobacterium tuberculosis BioA enzyme inhibitor Measured in Biochemical System Using Plate Reader - 2163-02_Inhibitor_Dose_CherryPick_Activity.; format: functional, Mycobacterium tuberculosis UT205
T4 sequence (P9WQ81 whole entry): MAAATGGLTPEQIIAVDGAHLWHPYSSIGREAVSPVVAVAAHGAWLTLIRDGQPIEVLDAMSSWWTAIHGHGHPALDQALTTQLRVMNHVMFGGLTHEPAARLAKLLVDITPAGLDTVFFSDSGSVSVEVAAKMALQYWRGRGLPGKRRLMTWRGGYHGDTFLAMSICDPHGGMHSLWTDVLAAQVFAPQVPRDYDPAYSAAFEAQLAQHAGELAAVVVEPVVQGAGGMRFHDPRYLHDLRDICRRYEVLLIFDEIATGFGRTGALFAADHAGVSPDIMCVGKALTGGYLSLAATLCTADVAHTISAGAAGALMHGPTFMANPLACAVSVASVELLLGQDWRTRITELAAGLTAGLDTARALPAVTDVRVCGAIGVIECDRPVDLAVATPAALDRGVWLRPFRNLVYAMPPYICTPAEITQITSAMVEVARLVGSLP

Cytochrome P450 1A2 = target: T5, Cytochrome P450 1A2 (Homo sapiens, UniProt P05177);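 also: PubChem cytochrome P450 panel assay, CYP1A2 panel member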
T5 sequence (P05177 whole entry): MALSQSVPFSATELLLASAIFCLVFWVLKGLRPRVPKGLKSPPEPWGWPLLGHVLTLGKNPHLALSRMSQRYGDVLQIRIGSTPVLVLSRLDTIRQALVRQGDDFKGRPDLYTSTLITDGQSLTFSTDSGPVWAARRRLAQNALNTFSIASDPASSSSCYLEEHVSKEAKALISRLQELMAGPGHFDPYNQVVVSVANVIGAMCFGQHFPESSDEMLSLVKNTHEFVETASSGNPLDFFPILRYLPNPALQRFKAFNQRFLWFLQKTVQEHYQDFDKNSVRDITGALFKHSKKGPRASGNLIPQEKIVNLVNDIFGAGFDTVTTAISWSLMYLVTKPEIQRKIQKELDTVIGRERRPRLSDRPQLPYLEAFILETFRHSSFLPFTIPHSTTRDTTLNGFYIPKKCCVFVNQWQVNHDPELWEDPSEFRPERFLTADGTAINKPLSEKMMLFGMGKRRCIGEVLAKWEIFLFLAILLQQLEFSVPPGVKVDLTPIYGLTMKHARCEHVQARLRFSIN

Streptokinase A = target: T6, Streptokinase A (Streptococcus pyogenes serotype M1, UniProt P10520); experiment: S. pyogenes streptokinase expression inhibitors, potency, dose response, plasminogen activation absorbance, OD405 (AID 1914); format: functional, Streptococcus pyogenes M1 GAS;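 also: secreted streptokinase activity via plasminogen activation per viability signal from cell pellet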
T6 sequence (P10520 whole entry): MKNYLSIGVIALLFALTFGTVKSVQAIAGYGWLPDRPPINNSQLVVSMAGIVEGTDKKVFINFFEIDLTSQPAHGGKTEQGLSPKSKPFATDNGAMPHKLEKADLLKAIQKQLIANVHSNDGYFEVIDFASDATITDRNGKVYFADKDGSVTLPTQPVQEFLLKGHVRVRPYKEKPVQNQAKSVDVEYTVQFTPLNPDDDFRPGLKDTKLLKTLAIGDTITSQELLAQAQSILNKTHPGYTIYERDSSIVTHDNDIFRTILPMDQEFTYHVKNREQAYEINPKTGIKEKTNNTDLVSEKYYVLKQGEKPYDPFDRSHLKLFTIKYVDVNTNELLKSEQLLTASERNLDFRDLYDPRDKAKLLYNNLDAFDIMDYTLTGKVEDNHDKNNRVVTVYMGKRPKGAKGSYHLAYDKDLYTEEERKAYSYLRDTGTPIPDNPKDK

[9] = tested on: Streptococcus sp. 'group A'; experiment: growth inhibition of control SK(-) GAS strain, dose response, counter-screen for streptokinase expression inhibitor project, luminescence, kanamycin, BacTiterGlo, confirmation (AID 1900); format: functional, organism-based
Streptococcus = experiment: Group A Streptococcus viability loss, dose response, counter-screen for streptokinase expression inhibitor project, luminescence, BacTiterGlo (AID 1915); format: functional, organism-based;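 also: potency for reduction of bacterial viability or growth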
Escherichia coli = experiment: microbe, parasite or virus in culture
[10] = cytotoxicity toward NIH3T3 fibroblasts, dose response, counter-screen, cell-based, ATP luminescence, mouse fibroblasts (AID 2010); format: functional;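 also: cells exposed to compound for about 90 hours before reading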
[11] = inhibitors of intracellular T. cruzi replication, confirmation, NIH3T3 host cells, beta-gal luminescence (AID 2044); format: functional, cell-based;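 also: intracellular parasites grown in NIH/3T3 mouse fibroblasts as host cells; luminescent beta-galactosidase reporter signal from transgenic T. cruzi replicating inside host cells; inhibitors lower the luminescence signal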
Prothrombin = Prothrombin (Bos taurus, UniProt P00735); experiment: thrombin inhibition, dose response, biochemical, fluorescence polarization, uHTS hits (AID 602369); format: functional
[12] = target: 26S proteasome non-ATPase regulatory subunit 14 (Homo sapiens, UniProt O00487); experiment: inhibition of proteasome subunit RPN11 – biochemical, fluorescence polarization, uHTS hits, confirmation (AID 602368); format: functional
Chain of 26S proteasome non-ATPase regulatory subunit 14 (O00487 whole entry): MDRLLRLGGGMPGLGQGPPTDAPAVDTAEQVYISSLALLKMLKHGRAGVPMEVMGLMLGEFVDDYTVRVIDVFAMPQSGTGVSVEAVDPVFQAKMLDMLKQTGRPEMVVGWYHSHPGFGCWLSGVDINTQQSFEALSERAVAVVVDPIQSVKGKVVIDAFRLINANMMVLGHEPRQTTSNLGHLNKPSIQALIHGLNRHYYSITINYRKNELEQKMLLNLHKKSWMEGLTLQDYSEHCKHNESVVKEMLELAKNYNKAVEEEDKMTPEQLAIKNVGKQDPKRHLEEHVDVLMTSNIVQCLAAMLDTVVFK

[13] = target: Induced myeloid leukemia cell differentiation protein Mcl-1 (Homo sapiens, UniProt Q07820); format: functional
Chain of Induced myeloid leukemia cell differentiation protein Mcl-1 (Q07820 whole entry): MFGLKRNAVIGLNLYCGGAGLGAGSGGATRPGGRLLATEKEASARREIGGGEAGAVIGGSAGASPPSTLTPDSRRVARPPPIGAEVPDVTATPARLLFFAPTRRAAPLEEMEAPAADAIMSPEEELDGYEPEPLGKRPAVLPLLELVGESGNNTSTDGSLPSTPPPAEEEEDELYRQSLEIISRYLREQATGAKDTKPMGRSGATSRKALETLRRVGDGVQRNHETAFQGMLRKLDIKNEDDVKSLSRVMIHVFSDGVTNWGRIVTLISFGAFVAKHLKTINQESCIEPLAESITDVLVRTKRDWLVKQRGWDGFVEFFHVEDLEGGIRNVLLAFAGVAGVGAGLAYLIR

[14] = target: 72 kDa type IV collagenase (Homo sapiens, UniProt P08253); experiment: Dose Response validation of uHTS RPN11 inhibitor hits using a MMP-2 Fluorescence assay.; format: functional
Vero = experiment: cells; format: functional, cell-based; conditions: Chlorocebus sabaeus
[15] = HEp-2 cell cytotoxicity, dose response, cytotoxicity control for RSV inhibitor project, HTS (AID 2410); format: functional; conditions: human respiratory syncytial virus
[16] = target: Glucose-6-phosphate 1-dehydrogenase (Homo sapiens, UniProt P11413); experiment: human G6PD enzyme inhibitors, dose response, selectivity assay for P. falciparum G6PD inhibitor project, biochemical, fluorescence (AID 504792); format: functional
Large T antigen = Large T antigen (Simian virus 40, UniProt P03070); format: functional, Betapolyomavirus macacae;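 also: Confirmatory-stage PubChem screen for compounds that inhibit SV40 T antigen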
Cytochrome P450 3A4 [17] = target: T3, Cytochrome P450 3A4; conditions: Potency

Chain of Voltage-gated inwardly rectifying potassium channel KCNH2 (Q12809 whole entry, the tested form may be a part): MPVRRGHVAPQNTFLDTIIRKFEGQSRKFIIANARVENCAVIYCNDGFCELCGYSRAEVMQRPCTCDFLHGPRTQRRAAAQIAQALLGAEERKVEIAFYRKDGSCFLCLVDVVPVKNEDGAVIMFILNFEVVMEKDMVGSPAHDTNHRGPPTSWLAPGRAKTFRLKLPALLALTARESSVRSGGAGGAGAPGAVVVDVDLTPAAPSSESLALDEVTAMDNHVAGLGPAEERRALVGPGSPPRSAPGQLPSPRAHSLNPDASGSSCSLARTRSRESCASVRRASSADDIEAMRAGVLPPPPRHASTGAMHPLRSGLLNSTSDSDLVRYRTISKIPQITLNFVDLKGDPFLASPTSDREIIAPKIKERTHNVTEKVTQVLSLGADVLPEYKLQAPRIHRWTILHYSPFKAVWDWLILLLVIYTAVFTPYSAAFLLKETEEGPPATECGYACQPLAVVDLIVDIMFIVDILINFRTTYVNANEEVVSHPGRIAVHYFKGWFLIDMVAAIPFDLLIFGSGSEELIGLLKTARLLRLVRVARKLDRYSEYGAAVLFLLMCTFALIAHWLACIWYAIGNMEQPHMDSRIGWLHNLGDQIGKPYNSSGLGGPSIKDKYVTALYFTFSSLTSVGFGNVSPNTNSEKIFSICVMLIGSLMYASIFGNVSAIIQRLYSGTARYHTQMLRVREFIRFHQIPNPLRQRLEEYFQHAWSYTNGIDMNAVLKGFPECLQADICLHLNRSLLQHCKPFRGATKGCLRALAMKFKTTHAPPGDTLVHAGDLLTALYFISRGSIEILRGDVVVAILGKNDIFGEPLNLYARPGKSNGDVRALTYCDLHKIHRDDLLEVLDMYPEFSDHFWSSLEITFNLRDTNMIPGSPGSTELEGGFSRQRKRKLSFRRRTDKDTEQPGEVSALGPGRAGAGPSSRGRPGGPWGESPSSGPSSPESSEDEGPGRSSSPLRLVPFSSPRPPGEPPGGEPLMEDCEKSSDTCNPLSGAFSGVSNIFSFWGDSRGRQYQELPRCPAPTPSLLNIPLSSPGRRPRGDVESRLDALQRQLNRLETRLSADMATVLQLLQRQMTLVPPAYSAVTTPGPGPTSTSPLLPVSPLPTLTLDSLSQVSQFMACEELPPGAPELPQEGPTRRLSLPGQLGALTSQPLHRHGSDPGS

SMILES: c1ccc2c(N3CCNCC3)cccc2c1
- AC50 [1]: 35.5 µM (inconclusive)

SMILES: N#C/C(=C\c1ccc(Sc2nc3ccccc3[nH]2)o1)c1ccccc1
- IC50 [2]: 4.69 µM (active)
- EC50 [3]: 23.6 µM (active)

SMILES: O=C(Nc1nc(-c2ccccn2)cs1)c1cc(Cl)ccc1[N+](=O)[O-]
- EC50 (Beta-galactosidase): > 40 µM (inactive)
- EC50 (cells [4]): 9.68 µM (active)
- IC50 [5]: 5.37 µM (active)
- EC50 (cells [6]): > 350 µM (not active)
- AC50 (INS1): 1.06 µM (active)

SMILES: CC(C(=O)OCC(=O)c1cccc([N+](=O)[O-])c1)N1C(=O)C2C3C=CC(C3)C2C1=O (stereo unspecified)
- EC50 (Beta-galactosidase): > 40 µM (inactive)
- IC50 [5]: > 40 µM (not active)

SMILES: COc1ccc(C(=O)Nc2ccc(F)cc2F)cc1OC
- AC50 (Cytochrome P450 3A4 [7]): 25.1 µM (inconclusive)
- AC50 (Cytochrome P450 2C19): 39.8 µM (inconclusive)
- AC50 (Cytochrome P450 2C9): inconclusive

SMILES: COC(=O)c1c(C(=O)OC)c(-c2ccccc2)n2c1C[S+]([O-])C2 (stereo unspecified)
- AC50 [8]: 4.67 µM (active)

SMILES: COC(=O)C1=C(C)N(Cc2ccccc2)C(=NCC(C)C)N[C@H]1c1cccc(F)c1
- EC50 (Beta-galactosidase): > 40 µM (inactive)
- IC50 [5]: > 40 µM (not active)

SMILES: O=c1c(-c2ccc(Cl)cc2)nc2cnc(N3CCOCC3)nc2n1-c1ccccc1
- AC50 (Cytochrome P450 1A2): 2 µM (inconclusive)
- AC50 (Cytochrome P450 2C9): inconclusive

SMILES: CCOc1ccc(CCNC(=O)c2cccnc2N2CCCC2)cc1OCC
- EC50 (Beta-galactosidase): > 40 µM (inactive)
- IC50 [5]: > 40 µM (not active)

SMILES: Cc1c(C(=O)Nc2ccc(Oc3ccccc3)cc2)sc2nc3n(c(=O)c12)CCC3
- IC50 [2]: 2.78 µM (active)
- EC50 (Streptokinase A): 39 µM (active)
- EC50 [9]: 6.66 µM (active)
- EC50 (Streptococcus): > 150 µM (not active)

SMILES: CCCCCCc1ccc(-c2ccc(C#N)cc2)cc1
- AC50 [1]: 6.31 µM (inconclusive)

SMILES: COc1ccc(OC)c(NC(=O)CSc2nnnn2-c2ccc3c(c2)OCO3)c1
- IC50 [2]: 0.24 µM (active)

SMILES: O=S(=O)(NC1CCCCC1)c1ccc(Cl)s1
- AC50 (Escherichia coli): 115 µM (active)

SMILES: N=C1N=C(N)c2cc3ccccc3cc21
- AC50 [1]: 28.2 µM (inconclusive)

SMILES: CC(Oc1ccc2c(-c3ccccc3)cc(=O)oc2c1)C(=O)NCCCN1CCOCC1 (stereo unspecified)
- AC50 (Escherichia coli): 62.1 µM (active)

SMILES: Cc1nc2nc(SCC(=O)N3CCOCC3)nn2c(C)c1Cc1c(F)cccc1Cl
- AC50 [8]: 0.217 µM (active)

SMILES: CCC(Sc1nc(C)cc(=O)[nH]1)C(=O)Nc1sc2c(c1C#N)CCCC2 (stereo unspecified)
- IC50 [2]: 5.4 µM (active)

SMILES: CCOC(=O)c1c(C)[n+](-c2ccc(C)cc2)c(CC)c2cc(OC)c(OC)cc12
- AC50 [8]: 4.21 µM (active)
- EC50 [10]: > 60 µM (not active)
- EC50 [11]: 0.292 µM (active)

SMILES: Cc1ccc(NC(=O)C2CCN(S(=O)(=O)c3c(C)n[nH]c3C)CC2)nc1
- AC50 (Cytochrome P450 2C19): 39.8 µM (inconclusive)
- AC50 (Cytochrome P450 2C9): inconclusive

SMILES: CS(=O)(=O)C1=NSC2=NC(=O)/C(=C\c3cccn3-c3ccccc3Cl)C(=N)N21
- IC50 (Prothrombin): 52.6 µM (active)
- IC50 [12]: 30 µM (active)
- IC50 [13]: 4.35 µM (active)
- IC50 [14]: > 100 µM (inactive)

SMILES: O=c1c2cccnc2[nH]c(=S)n1CCCN1CCN(c2ccccc2F)CC1
- IC50 (Vero): 24.6 µM (active)

SMILES: CCOC(=O)c1c(N/C=C(\C#N)c2nc(-c3ccc(OC(C)=O)cc3)cs2)sc2c1CCC2
- AC50 (Escherichia coli): 12.3 µM (active)

SMILES: C=CCNc1ccccc1S(=O)(=O)NCc1ccccc1
- AC50 (Escherichia coli): > 150 µM (inactive)

SMILES: COC(=O)C[C@@H]1C[C@@H]2c3cc(NC(=O)c4cccnc4)ccc3O[C@@H]2[C@@H](CO)O1
- AC50 [8]: 13.6 µM (active)

SMILES: CCc1ccc(OCC(=O)N/N=C/c2cc([N+](=O)[O-])ccc2N2CCOCC2)cc1
- CC50 [15]: > 50 µM (active)
- IC50 [16]: > 80 µM (inactive)

SMILES: O=c1onc2n1-c1cc(Br)ccc1OC2
- AC50 [1]: 5.62 µM (inconclusive)
- AC50 (Cytochrome P450 3A4 [7]): 20 µM (inconclusive)

SMILES: O=C(O)/C=C/c1ccc(O)c(O)c1 [CAFFEIC ACID]
- AC50 [1]: 2.51 µM (inconclusive)
- IC50 (Large T antigen): 7.3 µM (active)
- AC50 (Cytochrome P450 3A4 [17]): 25.1 µM (inconclusive)
